MIC, inhibition ring and inhibitory ring data for one molecule are collected here from patent US6790968B1, “Substance FKI-0076 and process for producing the same” (The Kitasato Institute, priority 2002, dated 2004).

Common to all, as to type: cell-based
Assay [1] concerns Acholeplasma laidlawii KB174. In words: MIC, microbroth dilution method. The settings on record: KB174, 24 h. For orientation: Dilution methods test growth across graded concentrations, often in twofold steps.
Assay [2] has as its system Staphylococcus aureus KB210 (ATCC6538P). In words: MIC, microbroth dilution method. Particulars: 24 h.
Assay [3] deals with Escherichia coli KB176 (IF012734). Put plainly: MIC, microbroth dilution method. Particulars: 24 h.
In assay [4] the test system is Candida albicans KF1. In words: MIC, microbroth dilution method. The settings on record: KF1, 24 h.
The next assay relates to Pyricularia oryzae KB180. In words: microbe, parasite or virus in culture. Particulars: KB180, 48 h.
The subject of assay [5] is Saccharomyces cerevisiae KF26 (ATCC9763). In words: MIC, microbroth dilution method. Particulars: ATCC9763, 24 h.
Assay [6] relates to Mucor racemosus KF223 (IF04581). In words: MIC, microbroth dilution method. Particulars: 24 h.
Assay [7] has as its system Xanthomonas campestris pv. oryzae KB88. In words: microbe, parasite or virus in culture. Particulars: 24 h.
For assay [8], the system named is Aspergillus niger KB103 (ATCC6275). Put plainly: MIC, microbroth dilution method. The settings on record: ATCC6275, 48 h.
Assay [9] has as its system Saccharomyces cerevisiae KF26 (ATCC 9763). In words: Enhanced activity of azole antifungal agent, paper disc method. The settings on record: 100 μg, 27° C., 24 hours. How it is done: (§1) Enhanced activity of azole antifungal agent is determined by the following method. Candida albicans KF1 and Saccharomyces cerevisiae KF26 (ATCC 9763) were used. Candida albicans KF1 was cultured in Waksman broth (glucose 2.0%, peptone 0.5%, meat extract 0.5%, and NaCl 0.5%, pH 7.0) and Saccharomyces cerevisiae KF26 was cultured in potato broth (glucose 1.0%, peptone 0.5% and potato extract 100 ml). Both strains were cultured at 27° C. for 40 hours. Subsequently, each strain was inoculated in GY agar medium (glucose 1.0%, yeast extract 0.5% and agar 0.8%, pH 6.0). […]. Miconazole (Sigma Chemicals, Inc.) was used as the azole antifungal agent. […] Activities were assessed using paper disc ([…]: 8 mm, ADVANTEC Inc.). After being cultured at 27° C. for 24 hours, the diameter of the inhibitory zone was measured for each organism.

In assay [10] the test system is Candida albicans KF1. The description is as above. The settings on record: 100 μg, 27° C., 24 hours. How it is done:
as §1

In assay [11] the test system is Pseudomonas aeruginosa KB105 (IF03080). In words: MIC, microbroth dilution method. The settings on record: 24 h.
The test system of assay [12] is Mycobacterium smegmatis KB42 (ATCC607). Put plainly: MIC, microbroth dilution method. The settings on record: Mycolicibacterium smegmatis, ATCC607, 24 h.
Assay [13] has as its system Bacillus subtilis KB27 (ATCC6633). In words: MIC, microbroth dilution method. Particulars: ATCC6633, 24 h.
In assay [14] the test system is Micrococcus luteus KB40 (ATCC9431). In words: MIC, microbroth dilution method. Particulars: ATCC9431, 24 h.
Where [15] appears, read: miconazole 0.1 μg/ml added to GY agar.
The mark [16] stands for this setting: without addition of miconazole, GY agar.

Values after ≈ are worked out from the molar mass of the structure shown. Where only a bound is given, the exact number is not on record here.

Consider `COC(=O)c1cc(OC)cc(OC)c1C(=O)c1coc(CC(C)OC(C)=O)cc1=O` (centres unmarked) [FKI-0076 substance], for which the MIC in assay [1] was 125 µg/mL (≈ 299 µM); in assay [2] it was over 125 µg/mL; in [3], over 125 µg/mL; against Candida albicans KF1 [4], over 125 µg/mL; against Pyricularia oryzae KB180, 125 µg/mL (≈ 299 µM); in assay [5], over 125 µg/mL. Further, the MIC in assay [6], in [7], in [8], in assay [11], in assay [12] and in assay [13] was over 125 µg/mL each time. Moreover, in assay [14], the MIC was over 125 µg/mL. Besides, the values for the inhibition ring (in assay [9] (setting [15]); in the assay on Candida albicans KF1 [10] (setting [15])) were 25 mm and 15 mm, respectively. The inhibitory ring entry (in assay [9] (setting [16]); with Candida albicans KF1 [10] (setting [16])) was “did not show an inhibitory ring” in each case.
